The values that follow come from paper PMC8224775, “Five Tetramic Acid Derivatives Isolated from the Iranian Fungus Colpoma quercinum CCTU A372” (Biomolecules, 2021).

Converted amounts (≈) assume the structure as drawn. Read-outs that look alike come from different tables or passages of the source.

What all share (test): Antimicrobial serial dilution assay (MIC)
What all share (format): cell-based

In one assay the test system is Bacillus subtilis DSM 10. The note with it: overnight. As for the experimental part:
(§1) Antimicrobial activity was determined by our established protocol, according to Becker et al.. In general, all of the pure compounds were dissolved in MeOH with a concentration of 1 mg/mL. Assessment of the antimicrobial activity was determined using the serial dilution assay method to calculate the minimum inhibitory concentration (MIC). In this method, the compounds were diluted in a range between 67 and 0.5 µg/mL in 96 well-plate and incubated with the test organism overnight. The next day, growth of the test organisms was visually observed, and MIC was determined in the lowest concentration where a clear zone (no growth of test organism) was observed. In our attempt for novel anti-infective compounds, an established standard protocol using various organisms representing a broad spectrum of pathogens of clinical interest, as well as sensitive indicator strains, was used (bacteria: Bacillus subtilis DSM 10, Staphylococcus aureus DSM 346, Acinetobacter baumanii DSM 30008, Chromobacterium violaceum DSM 30191, Escherichia coli DSM 1116 and Pseudomonas aeruginosa PA14; mycobacteria: Mycobacterium smegmatis ATCC 700084 and fungi: Candida albicans DSM 1665, Schizosaccharomyces pombe DSM 70572, Mucor hiemalis DSM 2656, Wickerhamomyces anomala DSM 6766 and Rhodotorula glutinis DSM 10134). Methanol as a solvent to dissolve the pure compounds was used as the negative control. Oxytetracycline, ciprofloxacin, gentamycin, and kanamycin were used as positive controls against bacteria, whereas nystatin was used against fungi. A detailed experimental procedure can be found in the SI.
(§2) Protocol: Antimicrobial Activity Assay
(§3) The assay was conducted as a minimum inhibitory concentration (MIC) assay in 96-well round- bottom microtiter plates using the parameters summarized in Table S1 and as already described in [S1]. Stocks of the test organisms were generated by growing the organisms overnight in 50 mL shaking flasks filled with 25 mL of the growth medium at 140r p m ( media and temperatures see Table S1). If the organisms were well grown the next day, which was checked by the occurrence of an optical density (OD) […] of the suspension (OD600 nm for bacteria, OD548 nm for fungi and M. smegmatis), aliquots of these were stored in 1.5 mL reaction tubes in a freezer at −80 °C for up to 12 months. Upon use, aliquots were unthawed and the OD of the suspension measured and adjusted by diluting with the respective growth medium. OD600 nm was adjusted to 0.01 and OD548 nm to 0.1. Subsequently, 150 μ L of the adj usted suspensions were added to all wells of a 96-well microtiter plate (one test organism per plate). In row A, additional 130 μ L of suspensions plus 20 μ L of the test compounds (1 mg/mL) and the controls (one compound/column) were added. MeOH was used as negative controls, while different positive controls (references) were used for the test organisms (see Table S1). Then, starting from row A, 150 μ L of t he suspension were transferred to the next row, the contents thoroughly mixed, and 150 μ L transferred to the following row. The remaining 150 μ L after row H were discarded. […]
(§4) of the test compounds, ranging from 66.7 μg/mL in row A to 0.52 μ g/mL in row H. The microtiter plates were then incubated overnight on a microplate shaker at 800 rpm at 30 or 37 °C (see Table S1) and were visually evaluated the next day. The MIC is defined as the lowest concentration where no growth of the test organism (clear zone) was observed. A lower MIC thus corresponds to a higher antimicrobial activity of the test compound.
Table S1: MIC assay experiment parameters test organism strain No growth incubation positive control
Bacillus subtilis DSM10 MHB1 30 oxytetracyclin 1.0mg/ mL […]
(§5) Candidaa lbicans DSM1665 MYC3 30 nystatin 1.0mg/ mL
(§6) Schizosaccharomyces DSM70572 MYC3 30 nystatin 1.0mg/ mL
(§7) Mucor hiemalis DSM2656 MYC3 30 nystatin 1.0mg/ mL
(§8) Wickerhamomyces DSM6766 MYC3 30 nystatin 1.0mg/ mL
(§9) Rhodotorula glutinis DSM10134 MYC3 30 nystatin 1.0mg/ mL […]

The test system of assay [1] is Acinetobacter baumanii DSM 30008. The note with it: serial dilution 67 to 0.5 µg/mL, overnight. Here is the method: as §1, §2, §3, §4
(§10) Table S1: MIC assay experiment parameters test organism strain No growth incubation positive control […]
as §5, §6, §7, §8
(§11) Rhodotorula glutinis DSM10134 MYC3 30 nystatin 1.0mg/ mL
(§12) 1 MHB: Müller-Hinton Broth (SN X927.1, CarlRoth GmbH, Karlsruhe, Germany) […]

A further assay deals with Mucor hiemalis DSM 2656. The note with it: overnight. Here is the method: as §1, §2, §3, §4, §10, §5, §6, §7, §8, §11, §12
Another assay has as its system Pichia anomala DSM 6766. The note with it: serial dilution 67 to 0.5 µg/mL, overnight. As for the experimental part: as §1, §2, §3, §4, §10, §5, §6, §7, §8, §11, §12
Assay [2] deals with Rhodotorula glutinis DSM 10134. The note with it: serial dilution 67 to 0.5 µg/mL, overnight. Here is the method:
as §1, §2, §3, §4, §10, §5, §6, §7, §8, §11, §12

In the next assay the test system is Escherichia coli. The note with it: serial dilution 67 to 0.5 µg/mL, overnight. As for the experimental part:
as §1, §2, §3, §4, §10
Escherichia coli DSM1116 MHB1 37 oxytetracyclin 1.0mg/ mL […]
as §5, §6, §7, §8, §9

[3] abbreviates: serial dilution 67 to 0.5 µg/mL.

In the case of `CCC(C(=O)O)C1C(C)=CC2CC(C)CCC2C1(C)C(O)=C1C(=O)C(C)N(C)C1=O` (stereo not drawn) [compound 2, Colposetin B], the MIC with Bacillus subtilis DSM 10 (DSM10, serial dilution 67 to 0.5 µg/mL, read-out: MIC) was 67 µg/mL (≈ 160 µM); in assay [1], “n.i”; with Mucor hiemalis DSM 2656 (DSM2656, serial dilution 67 to 0.5 µg/mL, read-out: MIC) it was 67 µg/mL (≈ 160 µM); against Pichia anomala DSM 6766, “n.i”; in assay [2] it was “n.i”; against Escherichia coli, “n.i”.

Turning to `CC(C=CCC(C)CCC=C(C)C(=O)C1=C(O)C(C)N(C)C1=O)=CC(C)C(O)C(=O)O` (stereo not drawn) [compound 4, Colpomenoic acid A], the MIC entry (with Bacillus subtilis DSM 10 (setting [3]); in assay [1]; against Mucor hiemalis DSM 2656 (setting [3]); against Pichia anomala DSM 6766; in assay [2]; in the assay on Escherichia coli) was “n.i” in each case.

For `CC1=CC2CC(C)CCC2C2(C)C(=O)OC(C(=O)O)C(C)C12` (stereo not drawn) [compound 3, Colposetin C], the MIC entry (against Bacillus subtilis DSM 10 (setting [3]); in assay [1]; with Mucor hiemalis DSM 2656 (setting [3]); in the assay on Pichia anomala DSM 6766; in assay [2]; in the assay with Escherichia coli) was “n.i” throughout.

In the case of `CC(C=CCC(C)C=CC=C(C)C(=O)C1=C(O)C(C)N(C)C1=O)=CC(C)C(O)C(=O)O` (stereo not drawn) [compound 5, Colpomenoic acid B], the MIC entry (in the assay on Bacillus subtilis DSM 10 (setting [3]); in assay [1]; against Mucor hiemalis DSM 2656 (setting [3]); in the assay with Pichia anomala DSM 6766; in assay [2]; against Escherichia coli) was “n.i” each time.

As for `CC(=O)OC(C(=O)O)C(C)C1C(C)=CC2CC(C)CCC2C1(C)C(O)=C1C(=O)C(C)N(C)C1=O` (stereo not drawn) [compound 1, Colposetin A], the MIC result (in the assay with Bacillus subtilis DSM 10 (setting [3]); in assay [1]; with Mucor hiemalis DSM 2656 (setting [3]); with Pichia anomala DSM 6766; in assay [2]; against Escherichia coli) was “n.i” in each case.
